Earlier results on three compounds are cited in article PMC12300650, “Development and Characterization of a New Oral Antileishmanial Bis(pyridine-2-Carboxamidine) Drug Through Innovative Dissolution Testing in Biorelevant Media Combined with Pharmacokinetic Studies” (Pharmaceutics, 2025).

Like-named read-outs stand apart in the source and are kept apart here.

Setting [1] is: FaSSIF pH 6.8, ref Naing et al., 2024 [24].
The mark [2] stands for this setting: FaSSIF pH 6.5, ref Higashino et al., 2023 [23].
Where [3] appears, read: Two state FaSSGF to FaSSIF, ref Arnold et al., 2011 [22].

On to `CC(C)c1nc(CN(C)C(=O)N[C@H](C(=O)N[C@@H](Cc2ccccc2)C[C@H](O)[C@H](Cc2ccccc2)NC(=O)OCc2cncs2)C(C)C)cs1` [Ritonavir], for which, under setting [1], the Precipitation time is 30 to 60 min and the “Supersaturation Time” value is on record as 30 min.

As to `CC(=O)N1CCN(c2ccc(OCC3COC(Cn4ccnc4)(c4ccc(Cl)cc4Cl)O3)cc2)CC1` (centres unmarked) [Ketoconazole], under setting [2], the Precipitation time was 30 to 60 min and the “Supersaturation Time” value is listed as 30 min.

On to `OCCN(CCO)c1nc(N2CCCCC2)c2nc(N(CCO)CCO)nc(N3CCCCC3)c2n1` [Dipyridamole], for which, under setting [2], the Precipitation time is 60 to 120 min and the “Supersaturation Time” value was 30 min. Further, under setting [3], the Precipitation time is 20 to 180 min and the “Supersaturation Time” value is given as 20 min.
